This is an account of results in PMC12469314, “Computational and Experimental Insights into Tyrosinase and Antioxidant Activities of Resveratrol and Its Derivatives: Molecular Docking, Molecular Dynamics Simulation, DFT Calculation, and In Vitro Evaluation” (International Journal of Molecular Sciences, 2025).

Experiment [1] addresses T1, mushroom tyrosinase (Agaricus bisporus, UniProt C7FF04).
T1 construct: purchased Sigma-Aldrich
Description: Anti-mushroom tyrosinase activity (DOPA-chrome method). It is filed as biochemical. The protocol: The inhibitory activity of the samples against mushroom tyrosinase was assessed using the DOPA-chrome method with some modifications. […] The assay was performed in a 96-well plate, in which the buffer was added to all wells, followed by 10% DMSO (50 μL) in the control and blank control wells. […] Next, 50 μL of tyrosinase solution was added to all wells except for the blank control and blank sample, followed by incubation at room temperature for 10 min. Subsequently, 50 μL of L-Dopa solution was added to all wells and incubated for 10 min at room temperature. Finally, the absorbance was measured at 492 nm using a UV spectrophotometer. […] All experiments were performed in triplicate.

Experiment [2] is described as follows: DPPH radical scavenging activity. The note with it: 30 min, 517 nm, mean ± SD. Here is the method:
The DPPH radical scavenging activity was determined according to the method in [45] with slight modifications. A 20 µL sample was added to a 96-well plate, followed by 0.1 mM DPPH dissolved in absolute ethanol. The mixtures were incubated in the dark at room temperature for 30 min, and their absorbance was measured at 517 nm with 3 replications using a UV spectrophotometer. The radical scavenging activity was calculated as follows:%radical scavenging = [(Acontrol − Asample)/Acontrol] × 100 where Acontrol = absorbance of the control, which contains an equal volume of DPPH and absolute ethanol, and Asample = absorbance of the sample or ascorbic acid standard, which contains an equal volume of DPPH and the sample solution. The percentage inhibition of the test solutions was calculated and plotted against their concentrations, along with the L-ascorbic acid standard, to generate a linear equation. The concentration required for IC50 was determined via interpolation from the linear equation.
(Loss of DPPH colour is used to gauge radical scavenging.)

The nature of experiment [3]: Ferric reducing antioxidant power (FRAP). The note with it: 595 nm, FeSO4 calibration, mean ± SD. Here is the method:
A FRAP assay was performed based on the method in [46] with slight modifications. The FRAP solution reagent was prepared by combining 0.3 M acetate buffer, 10 mM TPTZ solution in 40 mM HCl, and 20 mM ferric chloride (FeCl3) solution in a 10:1:1 ratio. Next, 20 µL of the sample was added to 280 µL of the FRAP reagent, and the mixture was thoroughly mixed. Absorbance was then measured at 595 nm using a UV spectrophotometer. A calibration curve was constructed with ferrous sulfate (FeSO4), and the results were expressed as the equivalent of FeSO4/g.

The nature of experiment [4]: ABTS radical scavenging activity. The following applies: 7 min at 37 °C, 734 nm, mean ± SD. The protocol:
ABTS radical scavenging activity was measured using the method described by Thaipong et al. (2006), with minor modifications. The ABTS solution was prepared by dissolving 7 mM ABTS and mixing it with potassium persulfate in a 2:1 ratio. The mixture was allowed to react in the dark for 12–16 h. Before use, the ABTS radical cation was diluted with ultrapure water to achieve an initial absorbance of around 0.70 ± 0.02 at 734 nm, as measured using a UV spectrophotometer. Sample solutions at various concentrations were then prepared by mixing 50 μL of each sample with 100 μL of the ABTS solution. The mixture was incubated in the dark for 7 min at 37 °C. After incubation, absorbance was measured at 734 nm. All tests were performed in triplicate, and the percentage of radical scavenging activity was calculated.

The structures appear in SMILES notation. Some results are limits rather than exact numbers.

T1 sequence (C7FF04 1-392): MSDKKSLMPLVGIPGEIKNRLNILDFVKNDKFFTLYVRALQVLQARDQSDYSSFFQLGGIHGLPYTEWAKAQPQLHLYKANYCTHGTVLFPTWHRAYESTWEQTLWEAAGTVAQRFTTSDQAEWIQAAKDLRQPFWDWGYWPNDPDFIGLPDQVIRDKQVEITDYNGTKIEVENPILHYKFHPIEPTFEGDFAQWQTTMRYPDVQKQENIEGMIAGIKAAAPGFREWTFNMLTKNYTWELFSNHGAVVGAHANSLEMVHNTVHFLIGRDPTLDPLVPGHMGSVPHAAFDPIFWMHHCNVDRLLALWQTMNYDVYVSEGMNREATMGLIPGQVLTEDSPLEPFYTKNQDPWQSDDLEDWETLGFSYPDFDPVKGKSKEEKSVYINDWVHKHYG

Turning to `CC(=O)Oc1ccc(/C=C/c2cc(OC(C)=O)cc(OC(C)=O)c2)cc1` [Are, Acetyl-resveratrol], the IC50 was 396 ± 5.74 µM in experiment [1] and more than 1500 µM in experiment [2]. Further, the FRAP reducing power result in experiment [3] is reported as “very low reducing power”.

As for `COc1ccc(/C=C\c2cc(OC)cc(OC)c2)cc1` [Cre, Cis-trismethoxy resveratrol], the figures for the IC50 in experiment [1] and in experiment [2] were 532 ± 3.59 µM and more than 1500 µM, respectively. The FRAP reducing power entry in experiment [3] was “very low reducing power”.

`Oc1ccc(CCc2cc(O)cc(O)c2)cc1` [Dre, Dihydroresveratrol]: the IC50 in experiment [1] is 335 ± 7.98 µM; in experiment [2], more than 1500 µM. In addition, the FRAP reducing power entry in experiment [3] is given as “very low reducing power”.

In the case of `O=C1O[C@H]([C@@H](O)CO)C(O)=C1O` [L-ascorbic acid, reference compound], in experiment [4], the IC50 worked out at 52.41 ± 0.06 µM.

Regarding `Oc1cc(O)cc(/C=C/c2ccc(O)cc2O)c1` [Ore, Oxyresveratrol], the results for the IC50 in experiment [1], in experiment [2] and in experiment [4] were 4.02 ± 0.46 µM, 38.1 ± 1.12 µM and 26.2 ± 0.57 µM, respectively. For the same molecule, the FRAP reducing power in experiment [3] is recorded as 664.99 ± 42.62 μmol Fe(II)/g.

On to `Oc1ccc(/C=C/c2cc(O)cc(O)c2)cc1` [Re, 3,4′,5-trihydroxy-trans-stilbene], for which the IC50 in experiment [1] was 517 ± 7.4 µM.

In general, IC50 refers to the concentration that gives 50% inhibition. Read a low IC50 as higher potency.
